Assays:
[1] = Metabolic stability in human liver microsomes assessed as half life; format: ADME, Microsome
[2] = molecular target: T1, Bifunctional epoxide hydrolase 2 (Rattus norvegicus, UniProt P80299); assay: Inhibition of rat sEH
T1 sequence (P80299 whole entry): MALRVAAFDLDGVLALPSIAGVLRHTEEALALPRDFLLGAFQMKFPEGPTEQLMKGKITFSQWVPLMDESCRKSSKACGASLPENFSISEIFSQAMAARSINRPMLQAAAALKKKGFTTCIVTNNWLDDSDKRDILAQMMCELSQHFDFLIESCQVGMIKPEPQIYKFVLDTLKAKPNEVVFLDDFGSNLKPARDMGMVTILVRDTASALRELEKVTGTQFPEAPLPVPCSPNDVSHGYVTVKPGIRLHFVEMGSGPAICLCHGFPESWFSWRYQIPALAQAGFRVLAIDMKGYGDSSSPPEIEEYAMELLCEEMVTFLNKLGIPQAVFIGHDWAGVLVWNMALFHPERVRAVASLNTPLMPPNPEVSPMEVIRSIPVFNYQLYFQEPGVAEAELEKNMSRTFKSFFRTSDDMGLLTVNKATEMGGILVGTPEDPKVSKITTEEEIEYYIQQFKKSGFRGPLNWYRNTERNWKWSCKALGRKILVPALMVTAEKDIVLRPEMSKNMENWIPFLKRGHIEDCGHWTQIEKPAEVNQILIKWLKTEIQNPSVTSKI

[3] = Metabolic stability in rat liver microsomes assessed as half life; format: ADME, Microsome
[4] = molecular target: T2, Bifunctional epoxide hydrolase 2 (Homo sapiens, UniProt P34913); assay: Inhibition of human soluble EH
T2 sequence (P34913 whole entry): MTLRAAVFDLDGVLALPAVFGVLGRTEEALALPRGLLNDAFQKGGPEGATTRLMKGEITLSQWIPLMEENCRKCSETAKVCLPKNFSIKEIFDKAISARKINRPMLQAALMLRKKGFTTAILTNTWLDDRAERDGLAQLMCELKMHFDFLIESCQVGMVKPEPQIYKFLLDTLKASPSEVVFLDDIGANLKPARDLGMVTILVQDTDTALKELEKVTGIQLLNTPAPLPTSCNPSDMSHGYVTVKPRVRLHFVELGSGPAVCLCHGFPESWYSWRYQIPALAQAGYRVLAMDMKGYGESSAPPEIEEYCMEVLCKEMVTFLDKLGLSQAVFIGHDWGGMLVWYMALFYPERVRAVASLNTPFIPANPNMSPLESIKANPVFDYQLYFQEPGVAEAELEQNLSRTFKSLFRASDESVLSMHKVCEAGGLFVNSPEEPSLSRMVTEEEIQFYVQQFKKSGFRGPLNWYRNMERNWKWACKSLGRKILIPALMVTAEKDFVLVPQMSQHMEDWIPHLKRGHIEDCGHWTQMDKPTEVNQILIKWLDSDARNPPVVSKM

[5] = molecular target: T2, Bifunctional epoxide hydrolase 2; assay: Inhibition of soluble EH in human HepG2 cells by cellular assay; format: cell-based
[6] = Plasma concentration in Sprague-Dawley rat at 5 mg/kg, po after 1 hr; format: ADME, organism-based; design: dose 5 mg/kg, route oral

Structure (SMILES)	half-life [1]	IC50 [2]	half-life [3]	IC50 [4]	IC50 [5]	concentration at 1 h [6]
CS(=O)(=O)c1ccc(CNC(=O)c2ccc(OCCC(F)(F)F)nc2)cc1	2.6 h	25 nM	2.88 h	110 nM	–	–
O=C(NCc1ccc(Cl)cc1)c1ccc(OCCC(F)(F)F)nc1	–	7 nM	–	–	–	–
CS(=O)(=O)c1ccc(CNC(=O)c2ccc(OCC(F)(F)F)nc2)c(Cl)c1	1.6 h	16 nM	1.25 h	15 nM	28 nM	–
O=C(NCCC(c1ccccc1)c1ccccc1)c1ccc(CCN2CCCC2)nc1	0.767 h	9 nM	0.683 h	18 nM	–	–
CCOCCn1cc(C(=O)NCc2ccc(Cl)cc2Cl)ccc1=O	0.4 h	6 nM	0.317 h	16 nM	–	–
O=C(NCc1ccccc1)c1ccc(OCCC(F)(F)F)nc1	–	–	–	1200 nM	–	–
O=C(NCCC(c1ccccc1)c1ccccc1)c1ccc(=O)[nH]c1	1.6 h	10 nM	0.117 h	8.1 nM	–	–
CNS(=O)(=O)c1ccc(CNC(=O)c2ccc(OCC(F)(F)F)nc2)c(Cl)c1	1.35 h	19 nM	0.417 h	14 nM	31 nM	–
CS(=O)(=O)c1cc(Cl)ccc1CNC(=O)c1ccc(OCC(F)(F)F)nc1	5 h	11 nM	1.65 h	–	–	–
O=C(NCc1ccc(Cl)cc1Cl)c1ccc(CCN2CCCC2)nc1	–	–	–	1500 nM	–	–
O=C(NCc1ccc(Br)cc1OC(F)(F)F)c1ccc(OCC(F)(F)F)nc1	5 h	7 nM	0.283 h	12 nM	0.1 nM	–
Nc1ccc(C(=O)NCCC(c2ccccc2)c2ccccc2)cn1	0.55 h	8.5 nM	0.0833 h	–	–	–
O=C(NCCC(c1ccccc1)c1ccccc1)c1ccc(OCC(F)(F)F)nc1	0.633 h	7.8 nM	< 0.05 h	5.4 nM	–	–
CS(=O)(=O)c1ccc(-c2ccc(CNC(=O)c3ccc(OCCC(F)(F)F)nc3)cc2)cc1	–	4.3 nM	–	12 nM	24 nM	–
O=C(NCc1ccc(Cl)cc1Cl)c1ccc(OCC(F)(F)F)nc1	2.97 h	7.3 nM	0.117 h	6.6 nM	18 nM	2500 nM
N#Cc1ccc(CNC(=O)c2ccc(OCC(F)(F)F)nc2)c(Cl)c1	3.13 h	–	1.75 h	14 nM	12 nM	–
O=C(NC1CCOCC1)C1CCN(C(=O)NCc2ccc(Cl)cc2Cl)CC1	5 h	–	1.73 h	–	–	–
CCOCCn1cc(C(=O)NCCC(c2ccccc2)c2ccccc2)ccc1=O	0.0667 h	4 nM	0.0833 h	–	–	–
O=C(NCc1ccc(Cl)cc1Cl)c1ccc(=O)[nH]c1	1.3 h	330 nM	3.18 h	400 nM	–	–
CS(=O)(=O)c1ccccc1CNC(=O)c1ccc(OCCC(F)(F)F)nc1	–	–	–	270 nM	–	–
O=C(NCc1ccccc1OC(F)(F)F)c1ccc(OCC(F)(F)F)nc1	1.3 h	6 nM	0.117 h	–	–	–
Nc1ccc(C(=O)NCc2ccc(Cl)cc2Cl)cn1	0.767 h	430 nM	0.733 h	–	–	–
